The test system of data set [1] is guinea pig. Also on record: method as in PMID 8402965. The settings on record: intradermal, 0.02 M procaine as standard; cited from earlier work.
Data set [2] concerns rabbit cornea. Also on record: method as in PMID 8402965. The settings on record: 0.01 M cocaine as standard; cited from earlier work.
Data set [3] deals with white mice. The settings on record: subcutaneous application; cited from earlier work.
The test system of data set [4] is Mycobacterium tuberculosis CNCTC My 331/88 (identical with H37Rv and ATCC 2794; MTv H37Rv). The experiment in a line: in vitro antimycobacterial MIC, dilution micromethod in Šula's semisynthetic medium. Format: cell-based. The settings on record: Mycobacterium tuberculosis.
Data set [5] deals with M. kansasii CNCTC My 235/80 (identical with ATCC 12478; MK 235/80). Described as above. The format is cell-based, Mycobacterium kansasii. The settings on record: Mycobacterium kansasii.
Data set [6] has as its system M. smegmatis ATCC 700084 (MS). The experiment in a line: in vitro antimycobacterial MIC, broth dilution micromethod in Middlebrook 7H9. Format: cell-based, Mycobacterium smegmatis. The settings on record: Mycolicibacterium smegmatis, ATCC700084, 72 h; 3-day cultivation, 37 °C; read-out: MIC MS 3-d. Background: In broth dilution the organism is exposed to a series of concentrations in liquid medium.

For data set [7], the system named is M. avium CNCTC My 330/80 (identical with ATCC 25291; MA 330/80). Put plainly: in vitro antimycobacterial MIC, dilution micromethod in Šula's semisynthetic medium. Format: cell-based, Mycobacterium avium. The settings on record: Mycobacterium avium.
Data set [8] relates to M. tuberculosis H37Ra ATCC 25177 (MTa H37Ra). The experiment in a line: in vitro antimycobacterial MIC, 96-well Middlebrook broth, alamarBlue. The format is cell-based, Mycobacterium tuberculosis. The settings on record: Mycobacterium tuberculosis, 168 h, 7-day cultivation; read-out: MIC MTa H37Ra 7-d. The method, then:
In vitro susceptibitity of given mycobacteria to reference drugs isoniazid (INH), ethambutol (EMB), ofloxacin (OFLX) or ciprofloxacin (CPX) was tested as well (Table 6 and Table 7).
A value of a minimum inhibitory concentration (MIC) was the lowest concentration of a tested compound, (i) which inhibited growth of MTv H37Rv, MK 235/80, MK 6509/96 and MA 330/80, respectively; (ii) at which no visible growth of MTa H37Ra, MS, MK DSM as well as MM was observed.
The molecules 1a–p were also in vitro screened against an avirulent M. tuberculosis H37Ra ATCC 25177 (MTa H37Ra), M. kansasii DSM 44162 (MK DSM), M. smegmatis ATCC 700084 (MS) and M. marinum CAMP 5644 (MM), respectively, in the Department of Infectious Diseases and Microbiology (Faculty of Veterinary Medicine, University of Veterinary and Pharmaceutical Sciences in Brno, Czech Republic).
Determination of a minimum inhibitory concentration (MIC) against MTa H37Ra. The mycobacterium was grown on Middlebrook broth (MB; MiddleBrook Pharmaceuticals, Inc., Westlake, TX, USA), supplemented with Oleic-Albumin-Dextrose-Catalase (OADC) supplement (Difco, Lawrence, KS, USA) and salicylate-derived mycobactin J (2 μg/mL; Allied Monitor Inc., Fayette, MO, USA), an iron-binding siderophore.
At log phase growth, a culture sample (10 mL) was centrifuged at 15,000 rpm/20 min using a bench top centrifuge MPW-65R (MPW Med Instruments, Warsaw, Poland). Following removal of the supernatant, a pellet was washed in fresh liquid Middlebrook 7H9GC broth (MiddleBrook Pharmaceuticals, Inc.) and re-suspended in a fresh OADC-supplemented MB (10 mL).
Turbidity was adjusted to match the McFarland standard No. 1 [87] containing approximately 3 × 10^8 Colony Forming Units (CFU) with MB broth. Further 1:20 dilution of the culture was performed in MB broth.
Susceptibility of MTa H37Ra was investigated in a 96-well plate format. In the experiments, sterile deionized water (300 µL) was added to all outer-perimeter wells of the plates to minimize evaporation of the medium in test wells during incubation. Each evaluated compound (100 µL) was incubated with MTa H37Ra (100 µL). Dilutions of each compound were prepared in triplicate and final concentrations varied from 1000 μg/mL to 8 μg/mL. All tested molecules were dissolved in DMSO (Sigma-Aldrich, Irvine, UK), and subsequent dilutions were made in supplemented MB broth. The plates were sealed with parafilm and incubated at 37 °C for 7 days.
Following incubation, 10% addition a water-soluble dye, the alamarBlue reagent (AbD Serotec, Kidlington, UK) was mixed into each well. This resaurin-based reagent served as an oxidation-reduction indicator of metabolic function and cellular health in cell viability bioassays.
Absorbance readings at 570 nm and 600 nm were taken, initially for background subtraction and after 24h re-incubation. The subtraction is necessary for strongly colored compounds, where the color may interfere with the interpretation of any color change. For non-interfering compounds, a blue color in a well was interpreted as absence of growth and pink color was scored as growth.
The minimum inhibitory concentration (MIC) was defined as the lowest concentration of a compound, at which no visible bacterial growth was observed. In other words, the MIC was the lowest concentration that prevented visual color change from blue to pink.

Data set [9] deals with M. marinum CAMP 5644 (MM). Put plainly: in vitro antimycobacterial MIC, broth dilution micromethod in Middlebrook 7H9. The format is cell-based, Mycobacterium marinum. The settings on record: Mycobacterium marinum, 504 h; 21-day cultivation, 28 °C; read-out: MIC MM 21-d.
Data set [10] concerns M. kansasii DSM 44162 (MK DSM). The data set is described as above. The settings on record: Mycobacterium kansasii, DSM 44162 / DSM 7, 168 h; 7-day cultivation, 37 °C; read-out: MIC MK DSM 7-d. The format is cell-based.
The mark [11] stands for this setting: 336 h, 14-day cultivation, read-out: MIC MTv H37Rv 14-d.
[12] abbreviates: 504 h, 21-day cultivation, read-out: MIC MTv H37Rv 21-d.
Setting [13] is: ATCC12478, 168 h, 7-day cultivation, read-out: MIC MK 235/80 7-d.
Setting [14] is: ATCC12478, 336 h, 14-day cultivation, read-out: MIC MK 235/80 14-d.
Where [15] appears, read: ATCC12478, 504 h, 21-day cultivation, read-out: MIC MK 235/80 21-d.
Where [16] appears, read: ATCC25291, 336 h, 14-day cultivation, read-out: MIC MA 330/80 14-d.
Where [17] appears, read: ATCC25291, 504 h, 21-day cultivation, read-out: MIC MA 330/80 21-d.

≈ marks a conversion by molar mass, not a printed value. Where two headings read alike, the source gives them in different places.

Usually LD50 stands for the dose expected to kill half of the subjects tested. In the case of `COC(=O)[C@H]1[C@@H](OC(=O)c2ccccc2)C[C@@H]2CC[C@H]1N2C` [cocaine], in data set [1], the “Ui, index of relative infiltration local anesthetic efficiency” value is 3.6. For the same compound, in data set [2], the “Us, index of relative surface local anesthetic efficiency” value is reported as 1.0. Further, in data set [3], the LD50 is 125 mg/kg.

With `CCN(CC)CCOC(=O)c1ccc(N)cc1` [procaine], the “Ui, index of relative infiltration local anesthetic efficiency” value in data set [1] is 1.0. Further, the “Us, index of relative surface local anesthetic efficiency” value in data set [2] was 0.1. Also, in [3], the LD50 is given as 600 mg/kg.

Regarding `NNC(=O)c1ccncc1` [INH, isoniazid, reference compound], the MIC in [4] (setting [11]) was 0.5 µM (≈ 0.0686 µg/mL); in data set [4] (setting [12]) it was 1 µM (≈ 0.137 µg/mL); in data set [5] (setting [13]), greater than 250 µM; in data set [5] (setting [14]) it was greater than 250 µM; in data set [5] (setting [15]), greater than 250 µM; in data set [6], 117 µM (≈ 16 µg/mL). Moreover, the MIC in data set [7] (setting [16]) is greater than 250 µM; in data set [7] (setting [17]) it was greater than 250 µM; in data set [8] it was 36.5 µM (≈ 5.01 µg/mL); in data set [9], 467 µM (≈ 64 µg/mL).

Turning to `CC1COc2c(N3CCN(C)CC3)c(F)cc3c(=O)c(C(=O)O)cn1c23` (stereo not shown) [OFLX, ofloxacin, reference compound], the MIC in data set [4] (setting [11]) came to 1 µM (≈ 0.361 µg/mL); in data set [4] (setting [12]), 2 µM (≈ 0.723 µg/mL); in [5] (setting [13]), 0.5 µM (≈ 0.181 µg/mL); in data set [5] (setting [14]) it was 1 µM (≈ 0.361 µg/mL); in [5] (setting [15]), 1 µM (≈ 0.361 µg/mL); in data set [7] (setting [16]) it was 32 µM (≈ 11.6 µg/mL). For the same compound, in [7] (setting [17]), the MIC came to 62.5 µM (≈ 22.6 µg/mL).

`CC[C@@H](CO)NCCN[C@@H](CC)CO` [EMB, ethambutol, reference compound]: the MIC was 1 µM (≈ 0.204 µg/mL) in [4] (setting [11]); 2 µM (≈ 0.409 µg/mL) in data set [4] (setting [12]); 16 µM (≈ 3.27 µg/mL) in data set [7] (setting [16]); 16 µM (≈ 3.27 µg/mL) in [7] (setting [17]); 16 µM (≈ 3.27 µg/mL) in data set [7] (ATCC25291, cultivation time not given, read-out: MIC MA 330/80).

For `O=C(O)c1cn(C2CC2)c2cc(N3CCNCC3)c(F)cc2c1=O` [CPX, ciprofloxacin, reference compound], the MIC in [6] was found to be 0.4 µM (≈ 0.133 µg/mL); in data set [10], 3 µM (≈ 0.994 µg/mL); in data set [9], 0.8 µM (≈ 0.265 µg/mL).

These data come from PMC6222509, “Dibasic Derivatives of Phenylcarbamic Acid against Mycobacterial Strains: Old Drugs and New Tricks?” (Molecules : A Journal of Synthetic Chemistry and Natural …, 2018).
